{"source": "patent US20230151069A1", "about": "“Cyclic Peptides” (LIFEARC, priority 2020, published 2023)", "key": {"TAP01 (MoG1K) antibody": {"target": "TAP01 (MoG1K) antibody", "assay": "Thioacetal bridged cyclic peptide binding ELISA with TAP01 antibody", "set-up": "species or system mouse", "experimental": "(§1) • 1. […] Incubate at 4° C. overnight • 3. Wash the plate (NUNC 384 program) • 4. […] Incubate at RT for 1 hour • 6. Wash the plate (NUNC 384 program) • 7. […] Incubate at 4° C. overnight • 9. Wash the plate (NUNC 384 program) • 10. […] Transfer 30 μL/well onto the assay plate • 12. Incubate at 37° C. for 1 hour • 13. Wash the plate (NUNC 384 program) • 14. […] Incubate at 37° C. for 1 hour 16. Wash the plate (NUNC 384 program) 17. […] Incubate at RT for 10 min in the dark 19.\n(§2) Binding to comparators antibodies was also assessed.\n(§3) Binding to comparator antibodies was also assessed (FIG. 26)."}, "Bapineuzumab": {"test_system": "Bapineuzumab", "assay": "Cyclic peptide binding ELISA with comparator antibody Bapineuzumab", "experimental": "as §1, §2, §3"}, "BAN2401": {"test_system": "BAN2401", "assay": "Cyclic peptide binding ELISA with comparator antibody BAN2401", "details": "FIGS. 7, 22", "experimental": "as §1\n(§4) Binding of the TAP01 antibody has been assessed to these thioacetal bridged cyclic peptide variants by ELISA (FIGS. 20-22 and Table 5). Binding to comparators antibodies was also assessed."}, "Solanezumab": {"test_system": "Solanezumab", "assay": "Cyclic peptide binding ELISA with comparator antibody Solanezumab", "details": "FIGS. 7, 22", "experimental": "as §1, §4"}, "pE3-42 amyloid peptide": {"test_system": "pE3-42 amyloid peptide", "assay": "Immunisation with disulphide bridged peptide, sera pE3-42 peptide binding ELISA", "assay_type": "in vivo, mice and rabbits", "details": "sera after immunisation with disulphide bridged peptide", "experimental": "• 1. Coat 384-well plate with 30 μL/well of 100 ng/ml PSL amyloid 1-42 peptide (Human-Peptide Specialty Laboratories-CEM1904161) diluted in carb/bicarb buffer • 2. Incubate at 37° C. for 1 hour • 3. Wash the plate (NUNC 384 program) • 4. […] Incubate at 4° C. overnight • 6. Wash the plate (NUNC 384 program) • 7. […] Transfer 30 μL/well onto the assay plate • 10. Incubate at 37° C. for 1 hour • 11. Wash the plate (NUNC 384 program) • 12. […] Incubate at 37° C. for 1 hour • 14. Wash the plate (NUNC 384 program) • 15. […] Incubate at RT for 10 min in the dark • 17. […] Coat 384-well plate with 30 μL/well of 100 ng/ml PSL amyloid pE3-42 peptide (Human-Peptide Specialty Laboratories-CEM062210 Pyr) diluted in carb/bicarb buffer • 2. Incubate at 37° C. for 1 hour • 3. Wash the plate (NUNC 384 program) • 4. […] Incubate at 4° C. overnight • 6. Wash the plate (NUNC 384 program) • 7. […] Transfer 30 μL/well onto the assay plate • 10. Incubate at 37° C. for 1 hour • 11. Wash the plate (NUNC 384 program) • 12. […] Incubate at 37° C. for 1 hour • 14. Wash the plate (NUNC 384 program) • 15. […] Incubate at RT for 10 min in the dark • 17."}, "[1]": {"test_system": "disulphide bridged 1-14 cyclic peptide 3, 12", "details": "mouse 5 (best immune response), FIG. 8", "experimental": "• 1. […] Incubate at 4° C. overnight • 3. Wash the plate (NUNC 384 program) • 4. […] Incubate at RT for 1 hour • 6. Wash the plate (NUNC 384 program) • 7. […] Incubate at 4° C. overnight • 9. Wash the plate (NUNC 384 program) • 10."}, "4-42 amyloid peptide": {"test_system": "4-42 amyloid peptide", "details": "sera after immunisation with disulphide bridged peptide, ELISA", "experimental": "• 1. […] Wash the plate (NUNC 384 program) • 4. […] Wash the plate (NUNC 384 program) • 7. […] Incubate at 37° C. for 1 hour • 13. Wash the plate (NUNC 384 program) • 14."}, "[2]": {"test_system": "thioacetal bridged 1-14 cyclic peptide 3,12", "assay": "Immunisation with thioacetal bridged peptide, sera binding ELISA to thioacetal bridged cyclic peptide", "assay_type": "in vivo, rabbits and mice", "experimental": "as §1"}, "[3]": {"test_system": "biotinylated cyclised peptide", "assay": "Sera of actively immunised 5XFAD and Tg4-42 mice, binding ELISA to cyclised peptide", "assay_type": "in vivo, mouse", "details": "FIGS. 32 and 33", "experimental": "as §1\nAnimals (SXFAD and Tg4-42 mice) were immunised with thioacetal bridged cyclic peptide 1-14 and sera were screened for binding to biotinylated cyclised peptide as previously described above."}, "[4]": {"assay": "Stability comparison of both versions of the constrained cyclic peptide", "assay_type": "physicochemical", "details": "listed as thioacetal bridged peptide"}, "ProBioDrug 6_1_6": {"test_system": "ProBioDrug 6_1_6", "assay": "Cyclic peptide binding ELISA with comparator antibody ProBioDrug 6_1_6", "details": "FIG. 7", "experimental": "(§5) • 1. […] Incubate at 4° C. overnight • 3. Wash the plate (NUNC 384 program) • 4. […] Incubate at RT for 1 hour • 6. Wash the plate (NUNC 384 program) • 7. […] Incubate at 4° C. overnight • 9. Wash the plate (NUNC 384 program) • 10. […] Transfer 30 μL/well onto the assay plate • 13. Incubate at 37° C. for 1 hour • 14. Wash the plate (NUNC 384 program) • 15. […] Incubate at 37° C. for 1 hour • 17. Wash the plate (NUNC 384 program) • 18.\nas §1\n(§6) ProBioDrug 6_1_6 (Deposit No. DSM ACC 2924) and ProBioDrug 24_2_3 (Deposit No. DSM ACC 2926) are described in […]."}, "ProBioDrug 24_2_3": {"test_system": "ProBioDrug 24_2_3", "assay": "Cyclic peptide binding ELISA with comparator antibody ProBioDrug 24_2_3", "details": "FIG. 7", "experimental": "as §5, §1, §6"}, "TAP01 antibody": {"test_system": "TAP01 antibody", "assay": "Proline mutated peptide binding to TAP01 antibody using Biacore T200", "set-up": "species or system mouse", "details": "Biacore T200, FIG. 23"}}, "note": "Like-named read-outs stand apart in the source and are kept apart here. *1 amine or outer side, *2 acyl side, *3 side chain or, on linkers, in order; H or OH if unused. Where a SMILES comes first, the peptide text is derived from it. Bridges are numbered along the chain shown (N, C = ends). CH2 = C([*:1])[*:2]"}
{"compound": "CC(C)[C@H](NC(=O)[C@H](CCC(=O)O)NC(=O)[C@@H]1CSCSC[C@H](N)C(=O)N[C@@H](C)C(=O)N[C@@H](CCC(=O)O)C(=O)N[C@@H](Cc2ccccc2)C(=O)N[C@@H](CCCNC(=N)N)C(=O)N[C@@H](Cc2c[nH]cn2)C(=O)N[C@@H](CC(=O)O)C(=O)N[C@@H](CO)C(=O)NCC(=O)N1)C(=O)N[C@@H](Cc1c[nH]cn1)C(=O)N[C@@H](Cc1c[nH]cn1)C(=O)O", "note": "[1, 10] (H-CAEFRHDSGCEVHH-OH; linker 1-10 via CH2; N-terminus and C-terminus assumed)", "values": [{"measurement": "EC50", "setting": "TAP01 (MoG1K) antibody; TAP01 (MoG1K) binding to thioacetal bridged cyclic peptide variants, Table 7, read-out: EC50", "result": 0.012, "unit": "µM"}]}
{"compound": "CC(C)[C@H](NC(=O)[C@H](CCC(=O)O)NC(=O)[C@@H]1CSCSC[C@H](N)C(=O)N[C@@H](C)C(=O)N[C@@H](CCC(=O)O)C(=O)N[C@@H](Cc2ccccc2)C(=O)N[C@@H](CCCNC(=N)N)C(=O)N[C@@H](Cc2c[nH]cn2)C(=O)N[C@@H](CC(=O)O)C(=O)N[C@@H](CO)C(=O)NCC(=O)N1)C(=O)N[C@@H](Cc1c[nH]cn1)C(=O)N[C@@H](Cc1c[nH]cn1)C(=O)O", "note": "[Peptide 1, 10] (H-CAEFRHDSGCEVHH-OH; linker 1-10 via CH2; N-terminus and C-terminus assumed)", "values": [{"measurement": "EC50", "setting": "TAP01 (MoG1K) antibody; TAP01 (MoG1K), FIG. 25, unit inferred, read-out: calculated EC50 value", "result": 0.012, "unit": "µM"}, {"measurement": "binding to comparator antibody Bapineuzumab", "setting": "Bapineuzumab; FIGS. 7, 22, 26, 34", "result": "Binding to the comparator antibody Bapineuzumab was seen"}]}
{"compound": "CC(C)[C@H](NC(=O)[C@H](CCC(=O)O)NC(=O)[C@@H]1CSCSC[C@H](NC(=O)[C@@H](N)CC(=O)O)C(=O)N[C@@H](CCC(=O)O)C(=O)N[C@@H](Cc2ccccc2)C(=O)N[C@@H](CCCNC(=N)N)C(=O)N[C@@H](Cc2c[nH]cn2)C(=O)N[C@@H](CC(=O)O)C(=O)N[C@@H](CO)C(=O)NCC(=O)N1)C(=O)N[C@@H](Cc1c[nH]cn1)C(=O)N[C@@H](Cc1c[nH]cn1)C(=O)O", "note": "[Peptide 2, 10] (H-DCEFRHDSGCEVHH-OH; linker 2-10 via CH2)", "values": [{"measurement": "EC50", "setting": "TAP01 (MoG1K) antibody; TAP01 (MoG1K) binding to thioacetal bridged cyclic peptide variants, Table 5, read-out: EC50", "result": 0.00133, "unit": "µM"}, {"measurement": "binding to comparator antibody BAN2401", "setting": "BAN2401", "result": "low affinity"}, {"measurement": "binding to comparator antibody Solanezumab", "setting": "Solanezumab", "result": "low affinity"}, {"measurement": "binding to comparator antibody Bapineuzumab", "setting": "Bapineuzumab; FIGS. 7, 22, 26, 34", "result": "able to bind"}, {"measurement": "binding to comparator antibody Bapineuzumab", "setting": "Bapineuzumab; FIGS. 7, 22, 26, 34, listed as cyclic peptide 2, 10", "result": "Binding to the comparator antibody Bapineuzumab was seen"}]}
{"compound": "DA*CFRHDSGYE*CHH-Biotin (*S—S* bridge) [1-14 cyclic peptide (disulphide bridged)]", "values": [{"measurement": "sera binding to pE3-42 amyloid peptide", "setting": "pE3-42 amyloid peptide", "result": "Minimal binding"}, {"measurement": "serum titre to the disulphide bridged cyclic peptide", "setting": "[1]", "result": "1/3200"}, {"measurement": "sera binding to 4-42 amyloid peptide", "setting": "4-42 amyloid peptide", "result": "Minimal binding"}]}
{"compound": "DAC*FRHDSGYEC*HH-[Cys]- amide (*S—CH2—S* bridged) [1-14 cyclic peptide (thioacetal bridged)]", "values": [{"measurement": "titres of response compared with disulphide bridged peptide", "setting": "[2]; mice", "result": "higher titres"}, {"measurement": "serum titre to thioacetal bridged cyclic peptide", "setting": "[2]; mice 3 and 4, FIG. 13", "result": "1/24300"}, {"measurement": "serum titre to thioacetal bridged cyclic peptide", "setting": "[2]; mouse 2, FIG. 13", "result": "1/72900"}, {"measurement": "immune response after immunisation", "setting": "[2]; rabbits and mice, FIG. 13", "result": "immune response was generated"}, {"measurement": "binding of TAP01 to the cyclic peptide (hairpin epitope)", "setting": "TAP01 (MoG1K) antibody; FIG. 7", "result": "able to bind"}, {"measurement": "immune response, sera binding to biotinylated cyclised peptide", "setting": "[3]", "result": "good immune response"}, {"measurement": "binding to comparator antibody BAN2401", "setting": "BAN2401", "result": "None of the comparator antibodies tested were able to bind"}, {"measurement": "binding to comparator antibody Solanezumab", "setting": "Solanezumab", "result": "None of the comparator antibodies tested were able to bind"}, {"measurement": "binding to comparator antibody Bapineuzumab", "setting": "Bapineuzumab; FIGS. 7, 22, 26, 34", "result": "None of the comparator antibodies tested were able to bind"}, {"measurement": "stability compared with disulphide bridged cyclic peptide", "setting": "[4]", "result": "more chemically stable"}, {"measurement": "binding to comparator antibody ProBioDrug 6_1_6", "setting": "ProBioDrug 6_1_6", "result": "None of the comparator antibodies tested were able to bind"}, {"measurement": "binding to comparator antibody ProBioDrug 24_2_3", "setting": "ProBioDrug 24_2_3", "result": "None of the comparator antibodies tested were able to bind"}]}
{"compound": "DAPFRHDSGYEVHH (Residue 3 (E to P))", "values": [{"measurement": "binding to TAP01 antibody", "setting": "TAP01 antibody", "result": "no binding observed"}]}
{"compound": "PPEFRHDSGYEVHH (Residue 1 and 2 (D to P and A to P))", "values": [{"measurement": "binding to TAP01 antibody", "setting": "TAP01 antibody", "result": "bind in a dose dependant manner"}]}
{"compound": "PPPFRHDSGYEVHH (Residue 1, 2 and 3 (D to P and A to P and E to P))", "values": [{"measurement": "binding to TAP01 antibody", "setting": "TAP01 antibody", "result": "bind in a dose dependant manner"}]}
